Results taken from ChEMBL document CHEMBL3085748, “Acetylcholinesterase inhibitors as Alzheimer therapy: from nerve toxins to neuroprotection” (Eur J Med Chem, 2013).

How the values were obtained:
Acetylcholinesterase [1] = biological target: T1, Acetylcholinesterase (Homo sapiens, UniProt P22303); experiment: Inhibition of acetylcholinesterase (unknown origin)
Cholinesterase = Cholinesterase (Equus caballus, UniProt P81908); experiment: Inhibition of equine serum BuChE after 15 mins by spectrophotometric analysis
Sequence of Cholinesterase (P81908 whole entry): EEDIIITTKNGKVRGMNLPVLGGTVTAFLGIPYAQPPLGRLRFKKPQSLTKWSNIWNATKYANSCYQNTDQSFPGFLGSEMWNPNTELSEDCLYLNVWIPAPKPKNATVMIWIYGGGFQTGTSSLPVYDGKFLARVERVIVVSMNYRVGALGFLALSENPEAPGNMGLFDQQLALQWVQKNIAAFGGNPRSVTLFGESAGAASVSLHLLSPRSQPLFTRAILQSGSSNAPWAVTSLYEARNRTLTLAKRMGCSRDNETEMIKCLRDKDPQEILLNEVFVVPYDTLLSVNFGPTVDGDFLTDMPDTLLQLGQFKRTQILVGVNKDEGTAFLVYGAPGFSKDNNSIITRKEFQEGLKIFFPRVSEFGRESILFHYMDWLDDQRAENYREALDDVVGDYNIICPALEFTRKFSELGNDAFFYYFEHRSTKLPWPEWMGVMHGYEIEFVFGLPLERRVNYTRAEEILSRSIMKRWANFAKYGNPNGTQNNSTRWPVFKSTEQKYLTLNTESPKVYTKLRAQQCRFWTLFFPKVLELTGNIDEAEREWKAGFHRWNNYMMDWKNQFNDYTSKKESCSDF

Acetylcholinesterase [2] = biological target: T2, Acetylcholinesterase (Electrophorus electricus, UniProt O42275); experiment: Inhibition of electric eel acetylcholinesterase using acetylthiocholine chloride as substrate preincubated for 15 mins followed by substrate addition measured every 1 min by spectrophotometric analysis
T2 sequence (O42275 whole entry): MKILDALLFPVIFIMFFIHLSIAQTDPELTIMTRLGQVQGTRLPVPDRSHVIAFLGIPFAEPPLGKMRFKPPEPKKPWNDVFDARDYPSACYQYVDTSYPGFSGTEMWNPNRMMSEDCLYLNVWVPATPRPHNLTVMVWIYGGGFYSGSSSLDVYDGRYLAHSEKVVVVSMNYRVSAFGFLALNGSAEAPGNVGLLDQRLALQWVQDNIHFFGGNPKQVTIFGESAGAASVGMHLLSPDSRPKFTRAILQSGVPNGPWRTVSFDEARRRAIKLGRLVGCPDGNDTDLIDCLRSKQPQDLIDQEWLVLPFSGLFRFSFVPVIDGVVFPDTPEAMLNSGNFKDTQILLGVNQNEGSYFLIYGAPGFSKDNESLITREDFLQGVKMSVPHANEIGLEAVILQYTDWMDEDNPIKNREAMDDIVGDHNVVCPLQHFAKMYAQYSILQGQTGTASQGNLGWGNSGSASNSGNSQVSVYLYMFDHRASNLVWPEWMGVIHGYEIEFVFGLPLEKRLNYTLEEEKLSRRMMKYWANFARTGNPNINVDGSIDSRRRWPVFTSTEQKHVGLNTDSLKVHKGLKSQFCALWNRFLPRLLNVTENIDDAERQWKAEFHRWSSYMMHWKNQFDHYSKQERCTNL

Acetylcholinesterase [3] = biological target: T3, Acetylcholinesterase (Rattus norvegicus, UniProt P37136); experiment: Inhibition of rat brain AChE
T3 sequence (P37136 whole entry): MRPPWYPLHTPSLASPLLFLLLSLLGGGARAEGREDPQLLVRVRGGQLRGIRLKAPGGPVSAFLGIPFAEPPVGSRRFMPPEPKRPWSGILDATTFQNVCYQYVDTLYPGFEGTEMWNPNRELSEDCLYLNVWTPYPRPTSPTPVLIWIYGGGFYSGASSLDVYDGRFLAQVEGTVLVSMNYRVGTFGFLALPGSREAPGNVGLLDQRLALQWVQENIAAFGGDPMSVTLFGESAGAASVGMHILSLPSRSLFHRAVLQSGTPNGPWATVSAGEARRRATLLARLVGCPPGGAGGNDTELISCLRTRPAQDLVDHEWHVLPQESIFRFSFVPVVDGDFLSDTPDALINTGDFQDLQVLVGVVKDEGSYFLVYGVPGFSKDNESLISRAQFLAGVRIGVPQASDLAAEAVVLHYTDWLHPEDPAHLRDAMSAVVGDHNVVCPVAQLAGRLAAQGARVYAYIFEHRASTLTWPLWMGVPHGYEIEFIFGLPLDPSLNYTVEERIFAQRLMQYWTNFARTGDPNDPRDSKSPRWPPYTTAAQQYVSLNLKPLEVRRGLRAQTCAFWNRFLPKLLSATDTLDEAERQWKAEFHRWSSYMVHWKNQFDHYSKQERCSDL

Acetylcholinesterase [4] = biological target: T2, Acetylcholinesterase; experiment: Inhibition of electric eel acetylcholinesterase using acetylcholine chloride as substrate measured every 1 min by chemiluminescent assay
Acetylcholinesterase [5] = biological target: T4, Acetylcholinesterase (Bos taurus, UniProt P23795); experiment: Inhibition of bovine erythrocyte acetylcholinesterase using acetylthiocholine iodide as substrate after 15 mins by Ellman's method
T4 sequence (P23795 whole entry): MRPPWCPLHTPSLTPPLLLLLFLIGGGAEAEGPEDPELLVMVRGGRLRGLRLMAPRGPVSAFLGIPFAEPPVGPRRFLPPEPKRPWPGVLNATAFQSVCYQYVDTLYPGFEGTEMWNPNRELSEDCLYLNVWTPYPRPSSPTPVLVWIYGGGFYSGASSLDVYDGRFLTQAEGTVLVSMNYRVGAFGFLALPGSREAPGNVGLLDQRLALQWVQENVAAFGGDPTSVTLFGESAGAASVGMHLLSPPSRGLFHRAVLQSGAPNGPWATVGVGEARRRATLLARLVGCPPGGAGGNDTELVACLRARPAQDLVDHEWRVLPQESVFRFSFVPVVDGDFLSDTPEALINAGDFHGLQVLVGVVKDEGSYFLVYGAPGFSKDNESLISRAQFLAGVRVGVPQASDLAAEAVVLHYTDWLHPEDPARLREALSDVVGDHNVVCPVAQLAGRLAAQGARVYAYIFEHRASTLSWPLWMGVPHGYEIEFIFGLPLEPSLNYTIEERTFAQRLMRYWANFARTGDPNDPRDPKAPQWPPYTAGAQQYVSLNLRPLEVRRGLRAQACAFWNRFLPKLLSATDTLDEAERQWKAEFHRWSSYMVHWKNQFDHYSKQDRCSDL

Acetylcholinesterase [6] = biological target: T1, Acetylcholinesterase; experiment: Inhibition of acetylcholinesterase (unknown origin) by Ellman's method

T1 sequence (P22303 whole entry): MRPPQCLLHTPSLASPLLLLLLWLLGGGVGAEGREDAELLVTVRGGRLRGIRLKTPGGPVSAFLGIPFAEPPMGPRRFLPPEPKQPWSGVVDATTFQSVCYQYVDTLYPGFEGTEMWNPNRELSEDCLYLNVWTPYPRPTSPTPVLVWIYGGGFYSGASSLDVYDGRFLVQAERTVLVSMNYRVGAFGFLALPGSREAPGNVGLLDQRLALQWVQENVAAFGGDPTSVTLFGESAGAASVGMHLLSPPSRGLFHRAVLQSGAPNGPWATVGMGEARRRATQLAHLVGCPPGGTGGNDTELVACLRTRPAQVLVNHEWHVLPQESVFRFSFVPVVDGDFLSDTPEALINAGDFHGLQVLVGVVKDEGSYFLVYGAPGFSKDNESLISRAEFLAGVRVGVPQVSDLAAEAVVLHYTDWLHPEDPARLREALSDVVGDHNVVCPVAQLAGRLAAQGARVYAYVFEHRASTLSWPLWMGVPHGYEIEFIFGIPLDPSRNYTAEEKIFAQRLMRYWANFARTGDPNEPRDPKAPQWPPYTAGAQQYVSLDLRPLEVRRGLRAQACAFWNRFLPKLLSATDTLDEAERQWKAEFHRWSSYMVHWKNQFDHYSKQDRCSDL

CCOC(=O)C1=C(C)Oc2nc3c(c(N)c2C1c1ccc(OC)cc1)CCCC3 (centres undefined)
IC50 (Acetylcholinesterase [1]): 0.868 µM

COc1cc2c3c(c1OC)/C1=C/C[C@H](O)C[C@@H](O)[C@H](O1)[C@@H]3N(C)CC2
IC50 (Cholinesterase): 13.4 µM | IC50 (Acetylcholinesterase [2]): 0.72 µM

CC(=O)CCCCCCCCCCCC[C@H]1CC[C@@H](OC(C)=O)[C@@H](C)N1
IC50 (Acetylcholinesterase [3]): 7.32 µM

O=C1CCN(Cc2ccccc2)C/C1=C\c1c[nH]c2ccccc12
IC50 (Acetylcholinesterase [4]): 8 µM

Cc1nn(-c2ccccc2)c2nc3nc4c(c(N)c3cc12)CCCC4
IC50 (Acetylcholinesterase [5]): 6.4 µM

CCOC(=O)C1=C(C)Oc2nc3c(c(N)c2C1c1ccc(C)cc1)CCCC3 (centres undefined)
IC50 (Acetylcholinesterase [1]): 0.182 µM

CC(=O)CCCCCCCCCCCC[C@H]1CC[C@@H](OC(=O)OC(C)(C)C)[C@@H](C)N1
IC50 (Acetylcholinesterase [3]): 15.1 µM

CCn1c(=O)n(C)s/c1=N\CCC1CCN(Cc2ccccc2)CC1
IC50 (Acetylcholinesterase [6]): 0.14 µM
